Measurements taken from ChEMBL document CHEMBL1629543, “Recovery of humoral immunity is critical for successful antiviral therapy in disseminated mouse adenovirus type 1 infection” (Antimicrob Agents Chemother, 2008).
Activity calls are given as the source filed them. The calls are words filed in the database; no cut-off is given here.

Columns and labels:
Mus musculus [1] = species: Mus musculus; details: BALB/c, 100 mg/kg
Description: Immunosuppressive activity against MAV-1 infected BALB/c mouse assessed as inhibition of production of protective antibodies at 100 mg/kg, ip treated 8 days before infection for 3 weeks measured after 62 days postinfection

Mus musculus [2] = species: Mus musculus; details: BALB/c, T-cell, 100 mg/kg
Description: Immunosuppressive activity against MAV-1 infected BALB/c mouse assessed as T cells suppression at 100 mg/kg, ip treated 8 days before infection for 4 weeks measured 14 days post infection by flow cytometry

Murine adenovirus 1 = details: Liver, 100 mg/kg
Description: Antiviral activity against MAV-1 infected in immunocompromized BALB/c mouse assessed as decrease in viral DNA load in liver at 100 mg/kg, ip treated 8 days before infection measured after 28 days post infection by RT-PCR

Mus musculus [3] = species: Mus musculus; details: BALB/c, 100 mg/kg; remark: listed apart in the source
Description: Immunosuppressive activity against MAV-1 infected BALB/c mouse assessed as inhibition of production of protective antibodies at 100 mg/kg, ip treated 8 days before infection for 2 weeks measured after 62 days postinfection

O=P1(N(CCCl)CCCl)NCCCO1 (centres undefined) was tested, and the inhibition (Mus musculus [1]) was “inactive”, the inhibition (Mus musculus [2]) was “Active” and the inhibition (Murine adenovirus 1) was “Active”. For the same compound, the inhibition (Mus musculus [3]) was “Active”.
